This test concerns the target T1, human Bradykinin B1 receptor (Homo sapiens, UniProt P46663).
T1 construct: host or cells: CHO-K1
T1 sequence (P46663 1-353): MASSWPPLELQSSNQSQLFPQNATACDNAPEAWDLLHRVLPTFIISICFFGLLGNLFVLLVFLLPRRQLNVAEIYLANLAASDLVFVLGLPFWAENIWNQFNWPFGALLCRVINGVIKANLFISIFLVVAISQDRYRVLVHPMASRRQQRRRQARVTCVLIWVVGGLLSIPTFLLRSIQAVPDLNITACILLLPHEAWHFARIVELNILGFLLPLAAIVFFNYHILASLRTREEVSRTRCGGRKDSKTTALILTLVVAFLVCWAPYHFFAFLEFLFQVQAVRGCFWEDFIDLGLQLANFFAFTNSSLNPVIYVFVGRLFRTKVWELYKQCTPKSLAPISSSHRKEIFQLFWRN
The test can be described thus: Calcium flux Assay (FLIPR) with recombinant CHO-K1 cells expressing human Bradykinin B1 receptor, in presence (hB1 IC50) or absence (hB1 free IC50) of 0.1% BSA. Type of test: cell-based. Background: Calcium flux is commonly read through the fluorescence of an indicator in the cells.

The mark [1] stands for this setting: in presence of 0.1% BSA, read-out: hB1 IC50.
[2] abbreviates: in absence of 0.1% BSA, read-out: hB1 free IC50.

Each structure is given as a SMILES string. Read-outs that look alike come from different tables or passages of the source.

Regarding `COc1ccc(-c2ccc(NC(=O)C3(c4cccc(Cl)c4)CC3)cc2-c2nnn[nH]2)cn1` [Example 316, 1-(3-chlorophenyl)-N-[4-(6-methoxypyridin-3-yl)-3-(1H-tetrazol-5-yl)phenyl]cyclopro-panecarboxa-mide], the IC50 (usually the concentration at which inhibition is half-maximal) under setting [1] was 328 nM.
On to `O=C(Nc1ccc(-n2cc(C(F)F)cn2)c(-c2nnn[nH]2)c1)C1(c2ccc(C(F)(F)F)cc2F)CC1` [Example 346, N-{4-[4-(Difluoromethyl)-1H-pyrazol-1-yl]-3-(1H-tetrazol-5-yl)phenyl}-1-[2-fluoro-4-(trifluoromethyl)phenyl]cyclopro-panecarboxamide], for which, under setting [2], the IC50 was found to be 65.9 nM.
As to `CCOc1ccc(-c2ccc(NC(=O)C3(CC(C)C)CC3)cc2-c2nnn[nH]2)cn1` [Example 89, N-[4-(6-ethoxypyridin-3-yl)-3-(1H-tetrazol-5-yl)phenyl]-1-isobuty-l cyclopropane-carboxamide], the IC50 came out at 541 nM under setting [2] and 615 nM under setting [1].
As for `O=C(Nc1ccc(-c2ccc(C(F)(F)F)nc2)c(-c2nnn[nH]2)c1F)C1(c2ccc(F)c(F)c2)CC1` [Example 298, 1-(3,4-difluorophenyl)-N-{2-fluoro-3-(1H-tetrazol-5-yl)-4-[6-(trifluoromethyl)pyridin-3-yl]phenyl}cyclopro-panecarboxa-mide], the IC50 under setting [2] was found to be 368 nM.
On to `O=C(Nc1ccc(-c2cc(F)ncc2F)c(-c2nnn[nH]2)c1)C1(c2ccc(C(F)(F)F)cc2F)CC1` [Example 167, N-[4-(2,5-difluoropyridin-4-yl)-3-(1H-tetrazol-5-yl)phenyl]-1-[2-fluoro-4-(trifluoromethyl)phenyl] cyclopropane-carboxamide], for which, under setting [2], the IC50 is 634 nM.
As for `CC(F)(F)c1ccc(-c2ccc(NC(=O)C3(c4ccc(OC(F)(F)F)cc4)CC3)cc2-c2nnn[nH]2)cn1` [Example 278, N-{4-[6-(1,1-difluroethyl)py-ridin-3-yl]-3-(1H-tetrazol-5-yl)phenyl}-1-[4-(trifluoromethoxy)phenyl]cyclo-propanecarboxa-mide], the IC50 under setting [2] was 3.62 nM.
Regarding `COc1ccc(-c2ccc(NC(=O)C3(CC4CCCCC4)CC3)cc2-c2nnn[nH]2)cc1OC` [Example 54, 1-(cyclohexyl-methyl)-N-[3′,4′-dimethoxy-2-(1H-tetrazol-5-yl)biphenyl-4-yl]cyclopropane carboxamide], the IC50 under setting [1] turned out to be 544 nM.
As for `CCOc1ccc(-c2ncc(NC(=O)C3(c4ccc(C(F)(F)F)cc4F)CC3)cc2-c2nnn[nH]2)cn1` [Example 219, N-[6′-ethoxy-3-(1H-tetrazol-5-yl)-2,3′-bipyridin-5-yl]-1-[2-fluoro-4-(trifluoromethyl)phenyl] cyclopropane-carboxamide], the IC50 under setting [2] was 86.8 nM.
Consider `O=C(Nc1ccc(-n2cnc(C(F)(F)F)n2)c(-c2nnn[nH]2)c1)C1(c2ccc(C(F)(F)F)cc2F)CC1` [Example 412, 1-[2-fluoro-4-(trifluoromethyl)phenyl]-N-{3-(1H-tetrazol-5-yl)-4-[3-(trifluoromethyl)-1H-1,2,4-triazol-1-yl]phenyl}cyclopro-panecarboxa-mide], for which, under setting [2], the IC50 was 504 nM.
For `CCOc1ncc(-c2ccc(NC(=O)C3(c4cccc(Cl)c4F)CC3)cc2-c2nnn[nH]2)cc1C(F)(F)F` [Example 159, 1-(3-chloro-2-fluorophenyl)-N-{4-[6-ethoxy-5-(trifluoromethyl)pyridin-3-yl]-3-(1H-tetrazol-5-yl)phenyl} cyclopropane-carboxamide], the IC50 is, setting by setting: under setting [2], 40.3 nM; under setting [1], 585 nM.
Take `O=C(Nc1ccc(-n2ccc(C(F)(F)F)n2)c(-c2nnn[nH]2)c1)C1(c2cccc(Cl)c2)CC1` [Example 354, 1-(3-Chlorophenyl)-N-{3-(1H-tetrazol-5-yl)-4-[3-(trifluoromethyl)-1H-pyrazol-1-yl]phenyl}cyclopro-panecarboxa-mide]: the IC50 under setting [2] was 1880 nM.
As for `O=C(Nc1ccc(-c2ccnc(C(F)(F)F)c2)c(-c2nnn[nH]2)c1)C1(c2ccc(F)cc2F)CC1` [Example 178, 1-(2,4-difluorophenyl)-N-{3-(1H-tetrazol-5-yl)-4-[2-(trifluoromethyl)pyridin-4-yl]phenyl} cyclopropane-carboxamide], the IC50 under setting [2] came to 287 nM.
In the case of `CCOc1ccc(-c2ccc(NC(=O)C3(c4cccc(Cl)n4)CC3)cc2-c2nnn[nH]2)cn1` [Example 107, 1-(6-chloropyridin-2-yl)-N-[4-(6-ethoxypyridin-3-yl)-3-(1H-tetrazol-5-yl)phenyl] cyclopropane-carboxamide], the IC50 reads like this: under setting [2], 177 nM; under setting [1], 134 nM.
As to `O=C(Nc1ccc(-c2ccc(C(F)F)nc2)c(-c2nnn[nH]2)c1)C1(c2ccc(F)cc2)CC1` [Example 268, N-{4-[6-(difluoromethyl)pyridin-3-yl]-3-(1H-tetrazol-5-yl)phenyl}-1-(4-fluorophenyl)cy-cloproapnecarbox-amide], the IC50 under setting [2] stood at 92 nM.
For the compound `COCc1ccc(-c2ccc(NC(=O)C3(c4cccc(Cl)c4)CC3)cc2-c2nnn[nH]2)cc1C` [Example 124, 1-(3-chlorophenyl)-N-[4′-(methoxymethyl)-3′-methyl-2-(1H-tetrazol-5-yl)biphenyl-4-yl]cyclopropane carboxamide], the IC50 under setting [1] came out at 38.3 nM.
For `O=C(Nc1ccc(-c2ccnc(C(F)F)c2)c(-c2nnn[nH]2)c1)C1(c2cccc(Cl)c2)CC1` [Example 170, 1-(3-chlorophenyl)-N-{4-[2-(difluoromethyl)pyridin-4-yl]-3-(1H-tetrazol-5-yl)phenyl} cyclopropane-carboxamide], the IC50 under setting [2] stood at 968 nM.
For `COc1ccc(-c2ccc(NC(=O)C3(c4cc(F)ccc4F)CC3)cc2-c2nnn[nH]2)cc1OC` [Example 21, 1-(2,5-difluorophenyl)-N-[3′,4′-dimethoxy-2-(1H-tetrazol-5-yl)biphenyl-4-yl]cyclopropane carboxamide], under setting [1], the IC50 was 367 nM.
On the same count and under the same terms, to `COc1cncc(-c2ccc(NC(=O)C3(c4ccc(C(F)(F)F)cc4)CC3)cc2-c2nnn[nH]2)c1` [Example 154, N-[4-(5-methoxypyridin-3-yl)-3-(1H-tetrazol-5-yl)phenyl]-1-[4-(trifluoromethyl)phenyl] cyclopropane-carboxamide] belongs 27.1 nM.
On to `O=C(Nc1ccc(-c2ccc(C(F)(F)F)nc2)c(-c2nnn[nH]2)c1F)C1(c2ccc(C(F)(F)F)cc2F)CC1` [Example 300], for which, under setting [2], the IC50 amounted to 58.1 nM.
Regarding `O=C(Nc1ccc(-c2ccc(C(F)(F)F)nc2)c(-c2nnn[nH]2)c1F)C1(c2ccc(OC(F)(F)F)cc2F)CC1` [Example 301, N-{2-fluoro-3-(1H-tetrazol-5-yl)-4-[6-(trifluoromethyl)pyridin-3-yl]phenyl}-1-[2-fluoro-4-(trifluoromethoxy)phenyl]cyclo-propanecarboxa-mide], the IC50 under setting [2] amounted to 36.1 nM.
Turning to `O=C(Nc1cnc(-c2cnn(C(F)F)c2)c(-c2nnn[nH]2)c1)C1(c2ccc(C(F)(F)F)cc2F)CC1` [Example 296, N-{6-[1-(difluoromethyl)-1H-pyrazol-4-yl]-5-(1H-tetrazol-5-yl)pyridin-3-yl}-1-[2-fluoro-4-(trifluoromethyl)phenyl]cyclopro-panecarboxamide], under setting [2], the IC50 was found to be 1730 nM.
As to `O=C(Nc1ccc(-c2ccc(C(F)(F)F)nc2)c(-c2nnn[nH]2)c1F)C1(c2cccc(Cl)c2)CC1` [Example 297, 1-(3-chlorophenyl)-N-{2-fluoro-3-(1H-tetrazol-5-yl)-4-[6-(trifluoromethyl)pyridin-3-yl]phenyl}cyclopro-panecarboxa-mide], the concentration for half-maximal inhibition (IC50) under setting [2] came to 350 nM.
